{
  "source": "patent US5412098A",
  "about": "“Quinolone derivative or salt thereof and antibacterial containing the same” (Wakunaga Seiyaku Kabushiki Kaisha, priority 1991, dated 1995)",
  "key": {"[1]": {"tested_on": "E. Coli NIH JC-2 (IFO 12734)", "assay": "Minimum inhibitory concentration, standard method of Japan Society of Chemotherapy, E. Coli NIH JC-2", "type": "cell-based", "settings": "Escherichia coli, IFO12734", "protocol": "(§1) Antibacterial activity, absorption and excretion of the compounds indicated in Examples were tested as follows.\n(§2) The minimum inhibitory concentration (MIC: microgram/ml) is measured by the standard method of Japan Society of Chemotherapy, (Chemotherapy, Volume 29, No.1, pp.76-79, 1981). The results are shown in Table 52 in which compound numbers are the same as those indicated in Examples."}, "[2]": {"tested_on": "S. aureus 209P (IFO 12732)", "assay": "Minimum inhibitory concentration, standard method of Japan Society of Chemotherapy, S. aureus 209P", "type": "cell-based", "settings": "Staphylococcus aureus", "protocol": "as §1, §2"}, "P. aeruginosa (IFO 3445)": {"tested_on": "P. aeruginosa (IFO 3445)", "assay": "Minimum inhibitory concentration, standard method of Japan Society of Chemotherapy, P. aeruginosa", "type": "cell-based", "settings": "Pseudomonas aeruginosa, IFO3445", "protocol": "as §1, §2"}, "[3]": {"assay": "Recovery in urine after oral administration (disk method, Bacillus subtilis ATCC 6633)", "type": "in vivo, male JCL-SD rats", "settings": "rat, 20 mg/kg, rats, 20 mg/10 ml/kg in 0.5% methylcellulose, fasted overnight, read-out: Excretion Rate, In Urine", "protocol": "(§3) The absorption and excretion after oral administration of the compounds of the present invention were tested by measuring the recovery in urine and bile as follows.\nTo a group of three male JCL-SD rats (6 weeks old) fasted overnight, a subject compound was orally administered as prepared to be 20 mg/10 ml/kg with 0.5% of methylcellulose solution. The sampling was carried out by collecting urine in 0 to 6 hours and 6 to 24 hours. The concentration of the subject compound in the urine was examined by a disk method by using Bacillus subtilis ATCC 6633 as a testing bacillus to obtain an excretion rate in urine for 24 hours."}, "[4]": {"assay": "Recovery in bile after oral administration (disk method, Bacillus subtilis ATCC 6633)", "type": "in vivo", "settings": "rat, 20 mg/kg, rats, prepared as in urine test (20 mg/10 ml/kg), read-out: Excretion Rate, In Bile", "protocol": "as §3\nA subject compound was prepared in the same manner as the recovery test in urine and was orally administered to the rats. The bile was collected by using a polyethylene tube inserted into the choledochus over 24 hours. The concentration of the subject compound in the bile sample was examined in the same manner as the recovery in urine to obtain an excretion rate in bile for 24 hours."}},
  "data": [
    {"smiles": "C[C@@H]1CN(c2nc3c(cc2F)c(=O)c(C(=O)O)cn3-c2cnsn2)C[C@@H]1N", "note": "(single isomer, unassigned) [Compound 19]", "values": [
      {"measurement": "MIC", "setting": "[1]", "value": "< 0.013", "unit": "µg/mL"},
      {"measurement": "MIC", "setting": "[2]", "value": 0.1, "unit": "µg/mL"},
      {"measurement": "MIC", "setting": "P. aeruginosa (IFO 3445)", "value": 0.39, "unit": "µg/mL"},
      {"measurement": "dose excreted at 24 h", "setting": "[3]", "value": 80.6, "unit": "%"},
      {"measurement": "dose excreted at 24 h", "setting": "[4]", "value": 4.4, "unit": "%"}
    ]},
    {"smiles": "Cl.N[C@H]1CCN(c2nc3c(cc2F)c(=O)c(C(=O)O)cn3-c2cnsn2)C1", "note": "[Compound 18, 7-(3-(S)-Aminopyrrolidin-1-yl)-6-fluoro-1-(1,2,5-thiadiazol-3-yl)-1,4-dihydro-4-oxo-1,8-naphthyridine-3-carboxylic acid hydrochloride]", "values": [
      {"measurement": "MIC", "setting": "[1]", "value": "< 0.013", "unit": "µg/mL"},
      {"measurement": "MIC", "setting": "[2]", "value": 0.2, "unit": "µg/mL"},
      {"measurement": "MIC", "setting": "P. aeruginosa (IFO 3445)", "value": 0.1, "unit": "µg/mL"},
      {"measurement": "dose excreted at 24 h", "setting": "[3]", "value": 20, "unit": "%"},
      {"measurement": "dose excreted at 24 h", "setting": "[4]", "value": 2, "unit": "%"}
    ]},
    {"smiles": "N[C@H]1CCN(c2nc3c(cc2F)c(=O)c(C(=O)O)cn3-c2csnn2)C1", "note": "[Compound 58]", "values": [
      {"measurement": "MIC", "setting": "[1]", "value": 0.05, "unit": "µg/mL"},
      {"measurement": "MIC", "setting": "[2]", "value": 1.56, "unit": "µg/mL"},
      {"measurement": "MIC", "setting": "P. aeruginosa (IFO 3445)", "value": 0.39, "unit": "µg/mL"}
    ]},
    {"smiles": "Cc1nonc1-n1cc(C(=O)O)c(=O)c2cc(F)c(N3CC[C@H](N)C3)nc21", "note": "[Compound 81]", "values": [
      {"measurement": "MIC", "setting": "[1]", "value": 0.05, "unit": "µg/mL"},
      {"measurement": "MIC", "setting": "[2]", "value": 0.1, "unit": "µg/mL"},
      {"measurement": "MIC", "setting": "P. aeruginosa (IFO 3445)", "value": 0.2, "unit": "µg/mL"}
    ]},
    {"smiles": "N[C@H]1CCN(c2c(F)cc3c(=O)c(C(=O)O)cn(Cc4cnsn4)c3c2F)C1", "note": "[Compound 126]", "values": [
      {"measurement": "MIC", "setting": "[1]", "value": 3.13, "unit": "µg/mL"},
      {"measurement": "MIC", "setting": "[2]", "value": 0.39, "unit": "µg/mL"},
      {"measurement": "MIC", "setting": "P. aeruginosa (IFO 3445)", "value": 3.13, "unit": "µg/mL"}
    ]},
    {"smiles": "Cc1c(F)c(N2CC[C@H](N)C2)cc2c1c(=O)c(C(=O)O)cn2-c1cnsn1", "note": "[Compound 162]", "values": [
      {"measurement": "MIC", "setting": "[1]", "value": 0.013, "unit": "µg/mL"},
      {"measurement": "MIC", "setting": "[2]", "value": 0.1, "unit": "µg/mL"},
      {"measurement": "MIC", "setting": "P. aeruginosa (IFO 3445)", "value": 0.2, "unit": "µg/mL"}
    ]},
    {"smiles": "Cc1nsnc1-n1cc(C(=O)O)c(=O)c2cc(F)c(N3CC[C@H](N)C3)nc21.Cl", "note": "[Compound 187, 7-(3-(S)-Aminopyrrolidin-1-yl)-6-fluoro-1-(4-methyl-1,2,5-thiadiazol-3-yl)-1,4-dihydro-4-oxo-1,8-naphthyridine-3-carboxylic acid hydrochloride]", "values": [
      {"measurement": "MIC", "setting": "[1]", "value": 0.05, "unit": "µg/mL"},
      {"measurement": "MIC", "setting": "[2]", "value": 0.2, "unit": "µg/mL"},
      {"measurement": "MIC", "setting": "P. aeruginosa (IFO 3445)", "value": 0.39, "unit": "µg/mL"}
    ]}
  ]
}
